Experiment [1] in a line: Tested for the 50% inhibition level against [125I]- gastrin binding to guinea pig gastric glands. In kind it is functional, tissue-based, Cavia porcellus, Stomach.
Experiment [2] deals with T1, Gastrin/cholecystokinin type B receptor (Rattus norvegicus, UniProt P30553).
T1 sequence (P30553 whole entry): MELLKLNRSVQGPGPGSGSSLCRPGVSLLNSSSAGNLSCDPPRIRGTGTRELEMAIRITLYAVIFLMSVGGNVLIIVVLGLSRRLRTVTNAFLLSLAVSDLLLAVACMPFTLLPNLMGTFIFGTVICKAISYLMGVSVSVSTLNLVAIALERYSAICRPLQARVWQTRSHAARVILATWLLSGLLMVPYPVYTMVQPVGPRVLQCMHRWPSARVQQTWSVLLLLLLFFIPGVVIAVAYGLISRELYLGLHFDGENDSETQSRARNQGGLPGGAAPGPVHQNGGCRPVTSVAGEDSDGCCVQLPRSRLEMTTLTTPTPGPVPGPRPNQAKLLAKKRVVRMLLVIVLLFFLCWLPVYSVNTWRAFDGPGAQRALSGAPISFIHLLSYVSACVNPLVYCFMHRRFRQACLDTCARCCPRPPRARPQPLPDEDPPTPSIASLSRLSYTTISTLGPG
Put plainly: Tested for the 50% inhibition level against [125I]- gastrin binding in AR42J cells. It counts as cell-based, AR-42J.

The structures appear in SMILES notation.

The term EC50 denotes the midpoint of the concentration-response curve. Low values mean greater potency, high ones weaker potency. On to `O=C(CCC(=O)N(Cc1ccccc1)/N=N/CCCl)NCCC(=O)NC(Cc1c[nH]c2ccccc12)C(=O)O` (stereo not drawn), for which the EC50 worked out at 63 µM in experiment [1] and 200 µM in experiment [2].

In experiment [1], `CSCC[C@H](NC(=O)[C@H](Cc1c[nH]c2ccccc12)NC(=O)CNC(=O)[C@H](Cc1ccc(O)cc1)NC(=O)[C@H](C)NC(=O)[C@H](CCC(=O)O)NC(=O)[C@H](CCC(=O)O)NC(=O)[C@H](CCC(=O)O)NC(=O)[C@H](CCC(=O)O)NC(=O)[C@H](CCC(=O)O)NC(=O)[C@H](CC(C)C)NC(=O)[C@H](Cc1c[nH]c2ccccc12)NC(=O)[C@@H]1CCCN1C(=O)CNC(=O)[C@@H](N)CCC(=O)O)C(=O)N[C@@H](CC(=O)O)C(=O)N[C@@H](Cc1ccccc1)C(N)=O` [GASTRIN] returned an EC50 of 0.6 µM.

These data come from ChEMBL document CHEMBL1127393 (J Med Chem, 1994).
